≈ marks a conversion by molar mass, not a printed value.
Tests used:
Format in all cases: cell-based
S. pneumoniae ATCC 51916 = assay: MIC, S. pneumoniae; conditions: S. pneumoniae (Spn52); in µg/mL
E. coli 8 ATCC 25922 = assay: MIC, E. coli 8 (wt); conditions: E. coli 8 (EC8)
S. aureus ATCC 13709 = assay: MIC, antibacterial potency, S. aureus; conditions: S. aureus (SA); in µg/mL

Row | Compound | MIC Spn52 (S. pneumoniae ATCC 51916) | MIC EC8 (E. coli 8 ATCC 25922) | MIC, SA (S. aureus ATCC 13709)
1 | CCc1[nH]c2nc(Sc3cncc(S(=O)(=O)N(C)C)c3)nc(N3CC[C@@H](N)C3)c2c1C [701,182] | >64 | > 64 µg/mL | >64
2 | CC(=O)c1nc(Oc2cccc(C#N)c2)nc2[nH]c(C(C)O)c(Cl)c12 (stereo not drawn) [700,947] | 64 | > 64 µg/mL | >64
3 | CCc1[nH]c2nc(Sc3cnc4nccnc4c3)nc(N(CCN)CC(C)c3ccccc3)c2c1Cl (stereo not drawn) [701,147] | 64 | > 64 µg/mL | 32
4 | CCc1[nH]c2nc(Oc3ccc4ccc[n+]([O-])c4c3)nc(Oc3ccc4ccc[n+]([O-])c4c3)c2c1Br [701,056] | 8 | > 64 µg/mL | 4
5 | CCc1[nH]c2nc(Sc3ccc4c(c3)C(=O)NC4)nc(N3CC4C(N)C4C3)c2c1Cl (stereo not drawn) [700,974] | 2 | 32 µg/mL (≈ 72.6 µM) | <=0.5
6 | CCc1[nH]c2nc(Oc3cccc(C#N)c3)nc(C(C)NCCO)c2c1Cl (stereo not drawn) [700,953] | >32 | > 32 µg/mL | >32
7 | CCc1[nH]c2nc(Sc3cnc4nccnc4c3)nc(N3CC4CNC(C4)C3)c2c1Cl (stereo not drawn) [701,137] | 4 | 64 µg/mL (≈ 141 µM) | 2
8 | CCc1[nH]c2nc(Oc3ccc4c(c3)ncc[n+]4[O-])nc(Oc3ccc4nccnc4c3)c2c1Br [701,059] | <=0.5 | > 64 µg/mL | <=0.5
9 | CCc1[nH]c2nc(Sc3cnc4cccnc4c3)nc(N3CCC(CNC(=O)c4nccs4)C3)c2c1Cl (stereo not drawn) [701,047] | <=0.5 | > 64 µg/mL | <=0.5
10 | CCc1[nH]c2nc(Sc3ccc4cc5c(nc4c3)CCOC5)nc(N3CC[C@@H](N)C3)c2c1Cl [701,082] | 16 | 4 µg/mL (≈ 8.32 µM) | <=0.5
11 | CCc1[nH]c2nc(Sc3cnc4cccnc4c3)nc(N3CCC(CNC(C)=O)C3)c2c1Cl (stereo not drawn) [701,044] | 1 | > 64 µg/mL | <=0.5
12 | Cc1nc(Sc2cncc(C(N)=O)c2)nc2[nH]c(C(C)O)c(Cl)c12 (stereo not drawn) [701,240] | >64 | > 64 µg/mL | >64
13 | CCc1[nH]c2nc(Sc3cncc(S(=O)(=O)N(C)C)c3)nc(N3CC[C@@H](N)C3)c2c1Cl [701,180] | 32 | > 64 µg/mL | 16
14 | CCc1[nH]c2nc(Oc3ccc4c(N5CC(N)C5)ncnc4c3)nc(Oc3cccc(C#N)c3)c2c1Br [700,944] | 8 | > 64 µg/mL | 8
15 | CCc1[nH]c2nc(Sc3ccc4cc(C#N)c[n+]([O-])c4c3)nc(N3CC4C(N)C4C3)c2c1Cl (stereo not drawn) [701,010] | 1 | > 16 µg/mL | <=0.5
16 | CCc1[nH]c2nc(Oc3cncnc3)nc(Oc3ccc4ncnc(N5CC(N)C5)c4c3)c2c1Cl [701,296] | 32 | > 64 µg/mL | 8
17 | CCc1[nH]c2nc(Oc3cncnc3)nc(Oc3cnc(N)nc3)c2c1Cl [701,241] | 2 | > 64 µg/mL | 1
18 | NC1C2CN(c3nc(Sc4cnc5nccnc5c4)nc4[nH]c(C5CC5)c(Cl)c34)CC12 (stereo not drawn) [700,976] | 2 | 8 µg/mL (≈ 17.7 µM) | 4

Source: patent US10047105B2, “Gyrase inhibitors” (Merck Sharp & Dohme Corp., priority 2009, dated 2018)
